Values belong to the compound of their own block, whether it stands above or below them.
How the values were obtained:
[1] = Absorption and emission spectra of dyes D1-D3 and dye-loaded copolymers F1-F3; type: physicochemical
Excerpt: Measurements of Absorption and Emission Spectra. The target dye-loaded copolymers F1-F3 were then subjected to investigations of their spectroscopic properties in both organic solvents and aqueous solution. […] Attaching to the 120-kDa amphiphilic copolymer drastically enhances the water solubility of BODIPY D1 and chlorin D2 without strong perturbation on the spectroscopic properties. The emission band for F1 and F2 in water remains the same as the ones measured in organic solutions, showing minimal dye-dye interaction is involved in aqueous solution of F1 and F2 at μM concentration. […] This negative result may be because of the inappropriate size of the copolymer backbone. Larger polymers may be required to encapsulate large hydrophobic chromophores like the phthalocyanine D3.
General Methods. All chemicals obtained commercially were used as received unless otherwise noted. Reagent-grade solvents (CH2Cl2, THF, methanol) and HPLC-grade water were used as received. NMR data was measured in a solution of CDCl3 unless otherwise noted. Noncommercial compounds 1, 2, and 4 were prepared following literature procedures. Analytical SEC experiments were performed with PLgel 10000 Å SEC column, eluted with ACS grade THF (stablized with 400 ppm of BHT) at 35° C. with a flow rate at 1 mL/min. Samples were detected with Agilent 1260 infinity refractive index detector. Absorption spectra were measured on Agilent 8453 and Shimadzu UV1800 instruments using dilute […] solutions of the compound in UV transparent (e.g., quartz) cuvettes versus a solvent blank at room temperature.

[2] = cited from earlier work

λabs max ([1]; in CH2Cl2, room temperature): 543 nm
SMILES: Cc1cc(C)c(C2=C3C=CC=[N+]3[B-](F)(F)n3cc(C#CCCCCC(=O)NN)cc32)c(C)c1 [Polymer D1, 2-[6-(N-Aminocarbamoyl)hex-1-yn-1-yl]-8-mesityl-4,4-difluoro-4-bora-3a,4a-diaza-s-indacene]

λabs max ([1]; in CH2Cl2, room temperature): 640 nm
SMILES: Cc1cc(C)c(-c2c3nc(c(-c4ccc(C(=O)NN)cc4)c4ccc(cc5nc(cc6ccc2[nH]6)CC5(C)C)[nH]4)C=C3)c(C)c1 [Polymer D2, 5-[4-(N-Aminocarbamoyl)phenyl]-10-Mesityl-18,18-dimethylchlorin]

λabs max ([1]; in toluene): 702 nm
SMILES: CCCCCCCc1cc2c(cc1CCCCCCC)-c1nc-2nc2[nH]c(nc3nc(nc4[nH]c(n1)c1cc(CCCCCCC)c(CCCCCCC)cc41)-c1cc(C#Cc4ccc(CC(=O)NN)cc4)ccc1-3)c1cc(CCCCCCC)c(CCCCCCC)cc21 [Polymer D3, 2-[4-(N-Aminocarbamoyl)methylphenylethynyl]-9,10,16,17,23,24-hexaheptylphthalocyanine]

SMILES: CCN(CC)c1ccc2c(c1)Oc1cc(N(CC)CC)ccc1C21c2ccccc2C(=O)N1N [Rhodamine-B hydrazide]
change in absorption or fluorescence spectra ([2]; only with Cu(II) and Hg(II) among the cations tested, aqueous solution): significant change in absorption or fluorescence spectra
Cu(II) concentration detected quantitatively ([2]; selective detection of Cu(II) in aqueous solution): 10^−7 M

Source: US20220034873A1, “POLYMERIC CHROMOPHORES, COMPOSITIONS COMPRISING THE SAME, AND METHODS OF PREPARING AND USING THE SAME” (North Carolina State University, priority 2018, published 2022)
